# Measured values taken from US5424329A, “Indole-2-carboxamides as inhibitors of cell adhesion” (Warner-Lambert Company, priority 1993, dated 1995).
# Counter-ions that a name gives are not always drawn.
# System: activation of HIV-1 in OM-10.1 cells
# Test: not given
# Conditions: poster NCDDG/AIDS 1991; cited from earlier work
row,Molecule,inhibition of the activation of HIV-1
1,interferon Y: interferon Y,modest inhibitors
2,CC(=O)N(O)CCCCCNC(=O)CCC(=O)N(O)CCCCCNC(=O)CCC(=O)N(O)CCCCCN [desferrioxamine],modest inhibitors
3,"Cc1cn([C@H]2C[C@H](F)[C@@H](CO)O2)c(=O)[nH]c1=O [3'-fluoro-3'-deoxythymidine (FLT), 3'-fluoro-3'-deoxythymidine]",modest inhibitors

# System: human neutrophil adhesion to TNF-α, IL-1α, and LPS-stimulated human umbilical vein endothelial cells (HUVEC)
# Test: Inhibition of human neutrophil adhesion to TNF-α, IL-1α, and LPS-stimulated human umbilical vein endothelial cells (chromium assay)
# Type: cell-based
# Conditions: not given
# Description: METHOD FOR DETERMINING THE INHIBITION OF HUMAN NEUTROPHIL ADHESION TO TNF-α, IL-1α, AND LPS-STIMULATED HUMAN UMBILICAL VEIN ENDOTHELIAL
# CELLS BY 3-SUBSTITUTED-INDOLE-2-CARBOXAMIDES
# Neutrophils were isolated from anticoagulant-treated venous blood obtained from healthy human volunteers according to the method of Ferrante and Thong (J. Immunol. Methods 1978;24:389-393). The cell preparations consisted of greater than 98% neutrophils.
# Second passage human umbilical vein endothelial cells (HUVEC) (Clonetics, San Diego, Calif.) were seeded into Falcon 24-well cell culture plates (Becton Dickinson, Lincoln Park, N.J.) at approximately 2×10^4 cells per well. The cells were grown to confluent monolayers in endothelial basal medium (EBM, Clonetics) supplemented with 5% fetal calf serum (Hyclone Laboratories, Logan, Utah), 10 ng/mL EGF, 1μg/mL hydrocortisone, 0.4% bovine brain extract (Clonetics) in 5% CO2 at 37° C. […]
# Stimulation of HUVEC with tumor necrosis factor-α (TNF-α) (Genzyme, Cambridge, Mass.), interleukin (IL-1α) (Genzyme) or E. coli 0111:B4 lipopolysaccharide (LPS) (Sigma) in the presence or absence of drug was initiated 4 hours prior to the addition of neutrophils. […] Lysates were collected and the radioactivity in each well was determined by gamma ray spectroscopy.
row,Molecule,inhibition at 100 µM
1,"COc1ccc2c(c1)c(OC(C)C)c(C(N)=O)n2-c1ccccc1 [Example 16, 5-Methoxy-3-(1-methylethoxy)-1-phenyl-1H-indole-2-carboxamide]",35%

# System: HIV activation in OM-10.1 cells
# Test: Inhibition of activation of latent HIV in OM-10.1 cells
# Type: cell-based, HIV-1
# Conditions: Human immunodeficiency virus 1, chronically HIV-infected promyelocytic clone
# Description: The cellular pathways involved in mediating the activating signal from the plasma membrane to the integrated virus, resulting in HIV-1 expression, are much less clear. Recently, the development of a reliable and simple system for evaluating compounds that could prevent activation of latent HIV was reported at the National […] (NCDDG)/AIDS by P. Feorino, S. T. Butera, T. M. Folks, and R. F. Schinazi, Nov. 3-7, 1991. The assay system employed the OM-10.1 cell line, a unique chronically-infected promyelocytic clone which remains CD4+ until HIV-1 activation with tumor necrosis factor-α. The expression of CD4+ on the cell surface and the activity of reverse transcriptase are used as markers for quantitating viral expression. Alternatively, other HIV markers, such as protease activity, which are known to those of skill in the art can be used. OM-10.1 cells remain CD4^+ until viral activation and respond to tumor necrosis factor induction, and therefore, these cultures are used to conveniently and rapidly examine pharmacologics for an ability to prevent CD4^+ down modulation (decrease in expression of CD4^+ on the cell surface) and HIV-1 expression.
row,Molecule,IC50
1,"COc1ccc2c(c1)c(OC(C)C)c(C(N)=O)n2C [Example 1, 5-Methoxy-1-methyl-3-(1-methylethoxy)-1H-indole-2-carboxamide]",0.8 µM

# System: human neutrophil adhesion to TNF-α stimulated human umbilical vein endothelial cells (HUVEC)
# Test: Inhibition of human neutrophil adhesion to TNF-stimulated human umbilical vein endothelial cells (modified method, calcein-AM fluorescence)
# Type: cell-based
# Conditions: 4 hours, IC50 from 33.3, 10.0, 3.3 and 1.0 μM
# Description: MODIFIED METHOD FOR DETERMINING THE INHIBITION OF HUMAN NEUTROPHIL ADHESION TO TNF-α, IL-1α, AND LPS STIMULATED
# HI/MAN UMBILICAL VEIN ENDOTHELIAL CELLS BY
# 3-SUBSTITUTED-INDOLE-2-CARBOXAMIDES
# Second passage HUVEC (Clonetics Corporation, San Diego, Calif., CC-2617) were seeded into Corning (Corning glass works, Corning, N.Y.) 96-well cell culture plates at approximately 5×10^3 cells/well and grown to confluency in supplemented endothelial basal medium (EBM, MCDB-131, Clonetics, 10 ng/mL EGF, 1 μg/mL hydrocortisone, 0.4% bovine brain extract, 5% Fetal Bovine Serum). One day prior to running the assay, typically 3 days postseeding, the cultures were re-fed with 0.2 mL/well supplemented EBM (S-EBM).
# Preparation of Test Compounds
# Test compounds were prepared as 10 mL stock solutions at a concentration of 1.0 mM. The compounds were initially solubilized in 0.1 mL DMSO followed by the addition of 9.9 mL S-EBM. The drug preparations were then diluted in one step to a concentration of 66.6 μM. Solubilizations and dilutions were performed in polystyrene containers.
# Isolation of Human Neutrophils
# Human neutrophils were isolated from anticoagulant-treated venous blood obtained from healthy volunteers according to the method of Ferrante and Thong, J. Immunol. Methods 1978;24:389-393. The cell preparations consisted of greater than 98% neutrophils.
# Recombinant human tumor necrosis factor-α (TNF, Genzyme, Boston, Mass., code TNF-H) was prepared at 400 U/mL in S-EBM. Stock TNF was prepared to 20,000 U/mL in Delbecco's phosphate buffered saline (PBS, Gibco, Grand Island, N.Y.) plus 0.1% BSA and stored at -70° C. HUVEC were washed one time with 0.2 mL warm unsupplemented EBM and then stimulated for 4 hours at 37° C. with 200 U/mL TNF in the presence of 33.3 μM test compound. This was accomplished by adding 0.1 mL of 400 U/mL TNF and 0.1 mL 66.6 μM test compound. These additions were done slowly as to not disrupt the HUVEC monolayer. Each compound was tested in six wells. Unstimulated (vehicle control) and TNF-stimulated without test compound treatments were also run in each plate.
# One hour prior to adding the neutrophils to the HUVEC, neutrophils (5×10^6 /mL) were labeled for 30 minutes at 37° C. with 5 μM calcein-AM (Molecular Probes, Eugene, Oreg.) in Hanks' balanced salt solution plus 0.45% BSA. Stock calcein was prepared to 5 mM in anhydrous DMSO and stored desiccated at -20° C. At the end of the incubation the cells were washed two times in cold HBSS and resuspended to a final concentration of 1×10^6 cells/mL in unsupplemented EBM.
# Addition of Neutrophils to HUVEC
# At the end of the 4-hour stimulation and immediately prior to the addition of the neutrophils to the HUVEC monolayer, the plates were washed with 0.2 mL warm unsupplemented EBM to remove TNF and drug. Neutrophils (1×10^5 cells) were slowly added to each of the treated wells and incubated for 30 minutes at 37° C. At the end of the incubation the plates were washed two times with 0.2 mL warm unsupplemented EBM followed by a final addition of 0.1 mL for plate scanning.
# Determination of Relative Fluorescence
# The relative fluorescence was determined using a Millipore Cytofluor 2300 system (excitation=480, emission=530, sensitivity=4). Each file was saved on disk as a comma separated value (.CSV) file for import into a spreadsheet.
# Results were expressed as means of percent inhibition of TNF-stimulated adherence. A Quattro Pro (Borland, Scotts Valley, Calif.) spreadsheet has been programmed to accept the raw data and perform all necessary calculations. [formula]
# Linear regression analysis of the means of the inhibition values were used to determine the IC50.
row,Molecule,IC50
1,"COc1ccc2c(c1)c(SC(C)C)c(C(N)=O)n2C [Example 26, 5-Methoxy-1-methyl-3-[(1-methylethyl)thio]-1H-indole-2-carboxamide]",29 µM
2,"CC(C)Sc1c(C(N)=O)n(C)c2ccc(O)cc12 [Example 29, 5-Hydroxy-1-methyl-3-[(1-methylethyl)thio]-1H-indole-2-carboxamide]",43 µM
3,"COc1ccc2[nH]c(C(N)=O)c(OC(C)C)c2c1 [Example 18, 5-Methoxy-3-(1-methylethoxy)-1H-indole-2-carboxamide]",8 µM
4,"CC(C)Oc1c(C(N)=O)n(C)c2ccc(O)cc12 [Example 15, 5-Hydroxy-1-methyl-3-(1-methylethoxy)-1H-indole-2-carboxamide]",7 µM
5,"COCn1c(C(N)=O)c(OC(C)C)c2cc(OC)ccc21 [Example 30, 5-Methoxy-1-methoxymethyl-3-(1-methylethoxy)-1H-indole-2-carboxamide]",34 µM
6,"COc1ccc2c(c1)c(OC(C)C)c(C(N)=O)n2C [Example 1, 5-Methoxy-1-methyl-3-(1-methylethoxy)-1H-indole-2-carboxamide]",10 µM

# Same assay, conditions: @ 33 μM
row,Molecule,inhibition at 33 µM
1,"CC(C)Sc1c(C(N)=O)n(C)c2ccc(OCc3ccccc3)cc12 [Example 23, 1-Methyl-3-[(1-methylethyl)thio]-5-(phenylmethoxy)-1H-indole-2-carboxamide]",15%
2,"CCN(CC)c1c(C(N)=O)[nH]c2ccc(OC)cc12 [Example 20, 3-(Diethylamino)-5-methoxy-1H-indole-2-carboxamide, monohydrochloride]",27%
3,"COc1ccc2c(c1)c(SC)c(C(N)=O)n2C [Example 6, 5-Methoxy-1-methyl-3-(methylthio)-1H-indole-2-carboxamide]",72%
4,"CCOc1c(C(N)=O)n(-c2ccccc2)c2ccc(OC)cc12 [Example 19, 3-Ethoxy-5-methoxy-1-phenyl-1H-indole-2-carboxamide]",13%
